Reference: patent US20260198495A1, “BINARY INSECTICIDE COMPOSITION AND USE THEREOF” (SHENYANG SINOCHEM AGROCHEMICALS R & D CO., LTD., priority 2022, published 2026)

Tests used:
Type in all cases: in vivo
[1] = tested on: 3rd-instar larvae of Spodoptera exigua Hübner; assay: Joint toxicity (LC50, CTC) of I-72 + indoxacarb, leaf-disk dipping, Example 1, Table 1; settings: Spodoptera exigua, cabbage leaf-disk dipping, 72 h, A = compound I-72, B = indoxacarb, read-out: LC50
Procedure: Test subject: 3rd-instar larvae of Spodoptera exigua Hübner, a sensitive strain reared indoors.
Test conditions: temperature: 24-26° C., humidity: RH 60%, and illumination: L:D=14:10.
Preparation method: the test pesticides were accurately weighed respectively with an electronic analytical balance. After the two technical materials were respectively added into an appropriate amount of solvent and completely dissolved, the stock solution of the required concentration was prepared with water containing 0.1% Tween 80. The stock solutions of the two active ingredients were mixed in a certain ratio to prepare a mixed solution, which was then diluted respectively into a series of pesticide solutions with a certain concentration gradient according to the experimental design dosage.
Experimental method: the dipping method was adopted. […]
The co-toxicity coefficient (CTC value) of the mixture was calculated according to the following formula:
[formula] • in the formula: ATI-measured toxicity index of the mixture; S-LC50 of the standard pesticide; and M-LC50 of the mixture. […]
[formula] • in the formula: CTC-co-toxicity coefficient; ATI-measured toxicity index of the mixture; and TTI-theoretical toxicity index of the mixture. • CTC-co-toxicity coefficient • ATI-measured toxicity index of the mixture • TTI-theoretical toxicity index of the mixture

[2] = tested on: Thrips flavus Schrank nymphs; assay: Joint toxicity of I-72 + spirotetramat, Example 26, Table 26; settings: A = compound I-72, B = spirotetramat, eggplant seedling spraying, 48 hours, read-out: LC50
Procedure: Test target: Thrips flavus Schrank nymphs.
(§1) Preparation of the pesticide solution: according to different test requirements, the test samples were accurately weighed respectively with an electronic analytical balance. The technical pesticides were dissolved in acetone, and then diluted with 0.1% Tween 80 water into a series of pesticide solutions with a certain concentration gradient according to the experimental design dosage.
Experimental method: first, eggplant seedlings with Thrips flavus Schrank were selected, and the base number was counted. Then, uniform spraying was performed with the pesticide solution in the order from low to high doses according to the experimental design, with 2 mL for each seedling and 3 replicates for each treatment. In addition, a blank control was set up.
(§2) The treated test materials were placed in an observation room, and the temperature, humidity and illumination of the observation room could be adjusted as needed. The number of dead and live insects was investigated 48 hours later. […] Then, the co-toxicity coefficient of each ratio was calculated using the Sun Y-P method to evaluate the mixing effect (the same as in Example 1).

[3] = tested on: 3rd-instar larvae of Yponomeuta evonymallus (Linnaeus); assay: Synergism screening (Bliss) of I-72 + pyrethroid insecticides, Example 37, Table 37; settings: single pesticide, leaf dipping, 72 hours
Procedure: Test target: 3rd-instar larvae of Yponomeuta evonymallus (Linnaeus).
as §1
(§3) Experimental method: Firstly, Hylotelephium spectabile leaves were selected and dipped into the prepared pesticide solutions for 10 s in the order from low dosage to high dosage according to the experimental design. After natural air-drying in the shade, they were placed in a 9-cm-diameter Petri dish with filter paper, and uniform and healthy test insects were introduced, with 10 insects for each treatment and 3 replicates for each treatment. In addition, a blank control (CK) was set up.
The treated test materials were placed in an observation room, and the temperature, humidity and illumination of the observation room could be adjusted as needed. The number of dead and alive insects was investigated 72 hours later, and the corrected mortality rate was calculated using the Abbott's formula.
The synergism of the mixture was evaluated by the Bliss method. According to the concept of independent joint action he proposed, Bliss believes that the theoretical mortality rate P when insecticides are used in combination can be calculated by the following formula: […]
Pm is the measured mortality rate (%) of the target when the first active ingredient is at a concentration of m; and Pn is the measured mortality rate (%) of the target when the second active ingredient is used at a concentration of n.
If the actual mortality rate of the target after the two active ingredients are mixed at a certain concentration is greater than theoretical mortality rate P, it is determined that the two active ingredients have a synergistic effect when used in combination at the set concentration, and otherwise, they have an antagonistic effect.

[4] = tested on: 2nd-instar larvae of Plutella xylostella; assay: Joint toxicity of I-72 + beta-cypermethrin, Example 43, Table 43; settings: in Brassica oleracea, foliar, 72 h
Procedure: as §1
as §3, with “first, cabbage” for “Firstly, Hylotelephium spectabile”, “in” for “into”, “solution” for “solutions”, “control” for “control (CK)”
The treated test materials were placed in an observation room, and the temperature, humidity and illumination of the observation room could be adjusted as needed. The number of dead and live insects was investigated 72 hours later.

[5] = tested on: Nilaparvata lugens (Stal) nymphs; assay: Joint toxicity of I-72 + imidacloprid, Example 70, Table 70; settings: A = compound I-72, B = imidacloprid, potted-seedling spraying, 72 hours, read-out: LC50
Procedure: Test target: Nilaparvata lugens (Stal) nymphs, a sensitive strain reared indoors.
as §1
Experimental method: the activity of the mixture against the Nilaparvata lugens (Stal) nymphs was determined by adopting the potted-seedling spraying method. First, rice seedlings were planted in culture pots. Uniform spraying was performed with the pesticide solution in the order from low dosage to high dosage according to the experimental design, with 2 mL for each seedling. Then, Nilaparvata lugens nymphs of uniform size were transferred onto the rice seedlings, with 3 replicates for each treatment. In addition, a blank control was set up.
as §2, with “72” for “48”

`CN(C(=O)c1ccc2c(c1)OC(F)(F)O2)c1cccc(C(=O)Nc2c(Br)cc(C(F)(C(F)(F)F)C(F)(F)F)cc2OC(F)F)c1F` [Compound I-72] was tested, and the LC50 [1] was 0.227 µg/mL, the LC50 [2] was 2.04 µg/mL and the “Measured mortality rate (%)” value ([3]; concentration 0.1 mg/L) was 11.1%. For the same compound, the “Measured mortality rate (%)” value ([3]; concentration 5 mg/L) was 57.1%, the LC50 [4] was 0.0897 µg/mL and the LC50 [5] was 243 µg/mL.
